Data published in patent US8927489B2, “Sustained release preparation of pro-insulin C-peptide” (Cebix Incorporated, priority 2005, dated 2015).

How the values were obtained:
[1] = Subcutaneous administration of C-peptide formulations in rats: C-peptide in serum; assay type: in vivo, Sprague-Dawley male rats; settings: rat, sc, 75 nmole/kg as a common aqueous solution, within 2 h, data not shown, read-out: serum concentration of C-peptide
Experimental: About 1 ml of each sample was transferred to a plastic syringe with a Luer-lok Tip (Becton Dickinson), which then was sealed with a Combi Stopper (Braun). Prior to administration a 23G Microlance (Becton Dickinson) was connected to the syringe. Each syringe was weighed before and after administration to the animal.
Thirty Sprague-Dawley male rats with a body weight of about 300 g were divided into 5 groups of 6 animals to test the uptake of C-peptide in the formulations outlined above. […] The serum obtained by centrifugation was collected and stored at −80° C. until analysis. Determination of C-peptide in serum was performed by an automatic immunoassay system (AutoDELFIA™ C-peptide, Perkin Elmer, Wallac Oy, Turku, Finland), with a detection limit of 0.005 nM and a precision below 5%. To fit into the calibration curve, the samples were diluted prior to analysis 100 times.

[2] = cited from earlier work
[3] = dose injected into a rat; cited from earlier work

Structure (SMILES): CC(C)C[C@H](NC(=O)[C@H](C)NC(=O)[C@H](CC(C)C)NC(=O)[C@@H]1CCCN1C(=O)[C@H](CCC(N)=O)NC(=O)[C@H](CC(C)C)NC(=O)[C@H](CO)NC(=O)CNC(=O)[C@H](C)NC(=O)CNC(=O)[C@@H]1CCCN1C(=O)CNC(=O)CNC(=O)CNC(=O)[C@H](CC(C)C)NC(=O)[C@H](CCC(=O)O)NC(=O)[C@@H](NC(=O)[C@H](CCC(N)=O)NC(=O)CNC(=O)[C@@H](NC(=O)[C@H](CCC(N)=O)NC(=O)[C@H](CC(C)C)NC(=O)[C@H](CC(=O)O)NC(=O)[C@H](CCC(=O)O)NC(=O)[C@H](C)NC(=O)[C@@H](N)CCC(=O)O)C(C)C)C(C)C)C(=O)N[C@@H](CCC(=O)O)C(=O)NCC(=O)N[C@@H](CO)C(=O)N[C@@H](CC(C)C)C(=O)N[C@@H](CCC(N)=O)C(=O)O [C-peptide, proinsulin C-peptide]
- level at time molar [1]: < 1 nM
- in vivo half life circulating in blood [2]: approximately 30 minutes
- time within which an injected dose has disappeared entirely from circulation [3]: 2 to 3 h
